From ChEMBL document CHEMBL4507329, “Data for DCP probe BTZO-1” (2021)

How the values were obtained:
[1] = target: Macrophage colony-stimulating factor 1 receptor (Homo sapiens) (UniProt P07333); settings: Compound concentration 1000.0 nM
[2] = target: MAP kinase-interacting serine/threonine-protein kinase 2 (Homo sapiens) (UniProt Q9HBH9); settings: Compound concentration 1000.0 nM
[3] = test system: Tyrosine-protein kinase ABL1 (Homo sapiens), P00519 [E255K]; settings: Compound concentration 1000.0 nM
[4] = target: Myosin light chain kinase, smooth muscle (Homo sapiens) (UniProt Q15746); settings: Compound concentration 1000.0 nM
[5] = target: Cyclin-dependent kinase 8 (Homo sapiens, UniProt P49336); settings: Compound concentration 1000.0 nM
[6] = target: Phosphorylase b kinase regulatory subunit alpha, liver isoform (Homo sapiens) (UniProt P46019); settings: Compound concentration 1000.0 nM
[7] = target: Serine/threonine-protein kinase TAO3 (Homo sapiens) (UniProt Q9H2K8); settings: Compound concentration 1000.0 nM
[8] = target: Ribosomal protein S6 kinase alpha-2 (Homo sapiens) (UniProt Q15349); settings: Compound concentration 1000.0 nM
[9] = target: 5-hydroxytryptamine receptor 3A (Homo sapiens) (UniProt P46098); settings: Compound concentration 10.0 uM
Chain of 5-hydroxytryptamine receptor 3A (Homo sapiens) (P46098 whole entry): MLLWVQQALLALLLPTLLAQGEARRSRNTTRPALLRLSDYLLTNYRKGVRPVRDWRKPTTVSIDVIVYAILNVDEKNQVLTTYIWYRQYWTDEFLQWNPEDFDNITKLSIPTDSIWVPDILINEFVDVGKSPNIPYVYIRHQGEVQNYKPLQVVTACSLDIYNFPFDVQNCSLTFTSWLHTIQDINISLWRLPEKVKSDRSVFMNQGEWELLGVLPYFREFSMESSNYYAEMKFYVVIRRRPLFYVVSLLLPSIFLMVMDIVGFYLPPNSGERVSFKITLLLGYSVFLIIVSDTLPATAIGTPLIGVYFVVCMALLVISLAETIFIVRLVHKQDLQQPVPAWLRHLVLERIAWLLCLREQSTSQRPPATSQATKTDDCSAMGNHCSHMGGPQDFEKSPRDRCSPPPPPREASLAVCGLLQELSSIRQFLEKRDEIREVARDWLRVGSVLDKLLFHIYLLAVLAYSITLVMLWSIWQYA

[10] = target: Tyrosine-protein kinase ABL2 (Homo sapiens) (UniProt P42684); settings: Compound concentration 1000.0 nM
[11] = target: RAC-beta serine/threonine-protein kinase (Homo sapiens) (UniProt P31751); settings: Compound concentration 1000.0 nM
[12] = target: Tyrosine-protein kinase JAK2 (Homo sapiens) (UniProt O60674); settings: Compound concentration 1000.0 nM
[13] = target: Serine/threonine-protein kinase PLK2 (Homo sapiens) (UniProt Q9NYY3); settings: Compound concentration 1000.0 nM
[14] = target: Fibroblast growth factor receptor 2 (Homo sapiens) (UniProt P21802); settings: Compound concentration 1000.0 nM
[15] = target: Mitogen-activated protein kinase kinase kinase kinase 4 (Homo sapiens) (UniProt O95819); settings: Compound concentration 1000.0 nM
[16] = target: Death-associated protein kinase 2 (Homo sapiens) (UniProt Q9UIK4); settings: Compound concentration 1000.0 nM
Chain of Death-associated protein kinase 2 (Homo sapiens) (Q9UIK4 whole entry, looked up): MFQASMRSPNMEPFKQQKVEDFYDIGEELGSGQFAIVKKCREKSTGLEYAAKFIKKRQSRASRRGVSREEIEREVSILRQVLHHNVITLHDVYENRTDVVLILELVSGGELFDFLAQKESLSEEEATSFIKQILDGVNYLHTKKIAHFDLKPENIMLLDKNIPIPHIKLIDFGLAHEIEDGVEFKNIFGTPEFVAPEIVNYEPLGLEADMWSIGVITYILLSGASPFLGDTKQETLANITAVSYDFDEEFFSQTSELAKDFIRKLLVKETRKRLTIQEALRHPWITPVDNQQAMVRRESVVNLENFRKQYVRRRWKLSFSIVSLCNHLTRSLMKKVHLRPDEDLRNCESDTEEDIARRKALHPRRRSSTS

[17] = test system: Mast/stem cell growth factor receptor Kit (Homo sapiens), P10721 [D816V]; settings: Compound concentration 1000.0 nM
[18] = test system: ALK tyrosine kinase receptor (Homo sapiens), Q9UM73 [C1156Y]; settings: Compound concentration 1000.0 nM
[19] = target: Mitogen-activated protein kinase kinase kinase 10 (Homo sapiens) (UniProt Q02779); settings: Compound concentration 1000.0 nM
[20] = target: Myosin-IIIa (Homo sapiens) (UniProt Q8NEV4); settings: Compound concentration 1000.0 nM
[21] = target: Activin receptor type-1 (Homo sapiens) (UniProt Q04771); settings: Compound concentration 1000.0 nM
[22] = target: Tyrosine-protein kinase ABL1 (Homo sapiens) (UniProt P00519); settings: Compound concentration 1000.0 nM
[23] = target: Cyclin-dependent kinase 14 (Homo sapiens) (UniProt O94921); settings: Compound concentration 1000.0 nM
[24] = target: Focal adhesion kinase 1 (Homo sapiens) (UniProt Q05397); settings: Compound concentration 1000.0 nM
Chain of Focal adhesion kinase 1 (Homo sapiens) (Q05397 2-1052 limits assumed): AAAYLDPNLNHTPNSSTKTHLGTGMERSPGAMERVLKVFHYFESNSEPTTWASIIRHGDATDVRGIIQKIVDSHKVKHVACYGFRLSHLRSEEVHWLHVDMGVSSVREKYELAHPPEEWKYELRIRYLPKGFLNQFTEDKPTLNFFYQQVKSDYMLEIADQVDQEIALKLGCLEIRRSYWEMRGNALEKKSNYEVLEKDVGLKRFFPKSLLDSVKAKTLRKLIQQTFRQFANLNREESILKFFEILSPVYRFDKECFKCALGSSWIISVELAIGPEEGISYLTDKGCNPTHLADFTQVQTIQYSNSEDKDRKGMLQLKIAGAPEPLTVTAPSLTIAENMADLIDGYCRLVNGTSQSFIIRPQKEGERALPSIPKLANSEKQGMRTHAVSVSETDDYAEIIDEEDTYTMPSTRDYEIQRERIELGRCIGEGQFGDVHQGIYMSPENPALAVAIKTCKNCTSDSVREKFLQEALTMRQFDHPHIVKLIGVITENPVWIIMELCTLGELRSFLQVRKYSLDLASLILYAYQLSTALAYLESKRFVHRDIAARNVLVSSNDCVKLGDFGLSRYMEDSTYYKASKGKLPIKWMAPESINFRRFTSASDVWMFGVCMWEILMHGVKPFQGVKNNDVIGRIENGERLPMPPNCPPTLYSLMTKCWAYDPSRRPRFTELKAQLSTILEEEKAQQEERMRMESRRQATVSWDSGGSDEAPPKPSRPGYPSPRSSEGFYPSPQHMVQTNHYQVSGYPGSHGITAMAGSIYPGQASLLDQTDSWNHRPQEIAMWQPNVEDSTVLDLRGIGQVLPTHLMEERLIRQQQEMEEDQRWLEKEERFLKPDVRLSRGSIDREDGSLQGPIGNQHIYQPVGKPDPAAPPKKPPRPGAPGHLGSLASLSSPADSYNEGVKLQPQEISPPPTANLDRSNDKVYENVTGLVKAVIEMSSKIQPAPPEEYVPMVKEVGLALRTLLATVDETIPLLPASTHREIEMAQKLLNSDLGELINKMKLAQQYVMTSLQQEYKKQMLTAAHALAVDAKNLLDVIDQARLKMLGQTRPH

[25] = target: Non-receptor tyrosine-protein kinase TYK2 (Homo sapiens) (UniProt P29597); settings: Compound concentration 1000.0 nM
[26] = target: Serine/threonine-protein kinase WNK1 (Homo sapiens) (UniProt Q9H4A3); settings: Compound concentration 1000.0 nM
[27] = target: Calcium/calmodulin-dependent protein kinase kinase 1 (Homo sapiens) (UniProt Q8N5S9); settings: Compound concentration 1000.0 nM
[28] = target: Eukaryotic translation initiation factor 2-alpha kinase 1 (Homo sapiens) (UniProt Q9BQI3); settings: Compound concentration 1000.0 nM
[29] = target: Serine/threonine-protein kinase MAK (Homo sapiens) (UniProt P20794); settings: Compound concentration 1000.0 nM
[30] = target: GABA-A receptor; anion channel (Rattus norvegicus) (UniProt O09028+P15431+P18506+P18508+P19969+P20236+P23574+P23576+P28471+P28473+P30191+P62813+P63079+P63138+Q91ZM7+Q9ES14); settings: Compound concentration 10.0 uM
[31] = target: Histamine H4 receptor (Homo sapiens) (UniProt Q9H3N8); settings: Compound concentration 10.0 uM
[32] = test system: Phosphatidylinositol 4,5-bisphosphate 3-kinase catalytic subunit alpha isoform (Homo sapiens), P42336 [Q546K]; settings: Compound concentration 1000.0 nM
[33] = target: Serine/threonine-protein kinase Nek7 (Homo sapiens) (UniProt Q8TDX7); settings: Compound concentration 1000.0 nM
[34] = target: Serine/threonine-protein kinase Chk2 (Homo sapiens) (UniProt O96017); settings: Compound concentration 1000.0 nM
[35] = target: Cyclin-dependent kinase 13 (Homo sapiens) (UniProt Q14004); settings: Compound concentration 1000.0 nM
[36] = target: Serine/threonine-protein kinase 4 (Homo sapiens) (UniProt Q13043); settings: Compound concentration 1000.0 nM
Chain of Serine/threonine-protein kinase 4 (Homo sapiens) (Q13043 whole entry, canonical isoform): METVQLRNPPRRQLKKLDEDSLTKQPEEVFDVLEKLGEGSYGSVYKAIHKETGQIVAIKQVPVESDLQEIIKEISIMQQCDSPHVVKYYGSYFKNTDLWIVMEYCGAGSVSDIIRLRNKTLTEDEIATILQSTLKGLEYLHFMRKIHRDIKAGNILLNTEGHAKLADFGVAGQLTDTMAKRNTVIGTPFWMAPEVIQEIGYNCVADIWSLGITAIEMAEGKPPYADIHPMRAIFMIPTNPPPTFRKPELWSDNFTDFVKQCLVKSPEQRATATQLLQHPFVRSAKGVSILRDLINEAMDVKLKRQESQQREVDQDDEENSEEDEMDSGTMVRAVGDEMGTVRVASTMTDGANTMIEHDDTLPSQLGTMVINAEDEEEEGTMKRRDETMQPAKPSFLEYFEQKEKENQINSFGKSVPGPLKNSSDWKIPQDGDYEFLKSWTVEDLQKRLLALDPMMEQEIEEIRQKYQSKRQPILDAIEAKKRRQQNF

[37] = test system: Phosphatidylinositol 4,5-bisphosphate 3-kinase catalytic subunit alpha isoform (Homo sapiens), P42336 [H1047L]; settings: Compound concentration 1000.0 nM
[38] = target: Mitogen-activated protein kinase 6 (Homo sapiens) (UniProt Q16659); settings: Compound concentration 1000.0 nM
[39] = target: High affinity nerve growth factor receptor (Homo sapiens) (UniProt P04629); settings: Compound concentration 1000.0 nM
Chain of High affinity nerve growth factor receptor (Homo sapiens) (P04629 33-796 limits assumed): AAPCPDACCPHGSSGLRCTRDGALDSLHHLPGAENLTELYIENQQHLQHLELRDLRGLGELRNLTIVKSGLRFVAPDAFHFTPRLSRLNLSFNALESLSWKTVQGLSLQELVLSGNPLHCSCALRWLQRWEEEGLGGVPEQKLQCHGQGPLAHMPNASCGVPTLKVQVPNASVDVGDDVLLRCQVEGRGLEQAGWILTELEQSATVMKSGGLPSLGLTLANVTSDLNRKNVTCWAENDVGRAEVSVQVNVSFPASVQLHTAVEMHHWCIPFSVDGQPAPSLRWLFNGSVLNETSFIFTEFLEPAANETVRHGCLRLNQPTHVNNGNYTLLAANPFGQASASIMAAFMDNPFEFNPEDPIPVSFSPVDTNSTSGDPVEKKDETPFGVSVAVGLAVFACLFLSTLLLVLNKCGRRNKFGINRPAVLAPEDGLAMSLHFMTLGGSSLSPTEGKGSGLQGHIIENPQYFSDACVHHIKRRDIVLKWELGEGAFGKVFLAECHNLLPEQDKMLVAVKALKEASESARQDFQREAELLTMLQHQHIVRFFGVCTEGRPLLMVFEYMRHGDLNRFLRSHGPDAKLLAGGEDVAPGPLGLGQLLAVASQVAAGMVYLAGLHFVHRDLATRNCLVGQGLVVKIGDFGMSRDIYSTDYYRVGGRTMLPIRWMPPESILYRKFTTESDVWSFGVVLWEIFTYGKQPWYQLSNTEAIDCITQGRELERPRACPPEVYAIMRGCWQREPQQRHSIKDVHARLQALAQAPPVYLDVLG

[40] = target: Platelet-derived growth factor receptor beta (Homo sapiens) (UniProt P09619); settings: Compound concentration 1000.0 nM
[41] = target: Rho-associated protein kinase 2 (Homo sapiens) (UniProt O75116); settings: Compound concentration 1000.0 nM
Chain of Rho-associated protein kinase 2 (Homo sapiens) (O75116 whole entry, looked up): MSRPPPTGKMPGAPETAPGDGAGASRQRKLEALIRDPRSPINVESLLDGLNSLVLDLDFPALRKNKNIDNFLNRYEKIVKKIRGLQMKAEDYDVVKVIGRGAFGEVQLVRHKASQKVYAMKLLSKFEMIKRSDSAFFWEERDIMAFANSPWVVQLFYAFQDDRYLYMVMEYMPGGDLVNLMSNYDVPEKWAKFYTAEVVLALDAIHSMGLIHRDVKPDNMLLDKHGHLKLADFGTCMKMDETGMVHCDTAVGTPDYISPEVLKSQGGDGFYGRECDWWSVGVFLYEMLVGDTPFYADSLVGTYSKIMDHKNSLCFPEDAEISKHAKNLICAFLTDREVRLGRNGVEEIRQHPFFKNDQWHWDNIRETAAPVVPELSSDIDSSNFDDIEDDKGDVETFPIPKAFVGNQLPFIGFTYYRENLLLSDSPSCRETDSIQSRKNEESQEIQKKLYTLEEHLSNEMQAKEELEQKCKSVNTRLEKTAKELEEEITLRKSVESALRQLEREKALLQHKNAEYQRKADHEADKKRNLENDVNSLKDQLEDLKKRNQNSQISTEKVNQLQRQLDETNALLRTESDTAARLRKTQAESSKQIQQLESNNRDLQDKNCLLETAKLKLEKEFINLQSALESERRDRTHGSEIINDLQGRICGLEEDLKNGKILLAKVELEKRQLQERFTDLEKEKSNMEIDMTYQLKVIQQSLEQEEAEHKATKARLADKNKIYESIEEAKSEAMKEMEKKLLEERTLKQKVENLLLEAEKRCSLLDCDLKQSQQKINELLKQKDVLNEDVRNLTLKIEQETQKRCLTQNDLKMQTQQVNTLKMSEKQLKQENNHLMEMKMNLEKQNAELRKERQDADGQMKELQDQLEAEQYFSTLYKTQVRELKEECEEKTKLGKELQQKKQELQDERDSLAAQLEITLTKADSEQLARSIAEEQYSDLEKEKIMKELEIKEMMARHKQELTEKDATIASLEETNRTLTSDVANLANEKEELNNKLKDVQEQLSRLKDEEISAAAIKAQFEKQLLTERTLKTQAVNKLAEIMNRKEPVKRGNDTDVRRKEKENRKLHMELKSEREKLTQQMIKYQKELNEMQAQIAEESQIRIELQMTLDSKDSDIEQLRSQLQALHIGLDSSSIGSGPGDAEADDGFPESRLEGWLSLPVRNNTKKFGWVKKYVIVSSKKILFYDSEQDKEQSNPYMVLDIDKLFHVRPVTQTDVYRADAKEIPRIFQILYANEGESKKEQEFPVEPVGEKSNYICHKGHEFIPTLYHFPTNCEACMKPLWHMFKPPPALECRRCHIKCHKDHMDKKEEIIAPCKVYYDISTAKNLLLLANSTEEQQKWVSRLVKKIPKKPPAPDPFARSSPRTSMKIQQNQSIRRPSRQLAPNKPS

[42] = target: Phosphatidylinositol 3-kinase catalytic subunit type 3 (Homo sapiens) (UniProt Q8NEB9); settings: Compound concentration 1000.0 nM
[43] = test system: Mast/stem cell growth factor receptor Kit (Homo sapiens), P10721 [A829P]; settings: Compound concentration 1000.0 nM
[44] = target: cAMP-dependent protein kinase catalytic subunit alpha (Homo sapiens) (UniProt P17612); settings: Compound concentration 1000.0 nM

Chain of MAP kinase-interacting serine/threonine-protein kinase 2 (Homo sapiens) (Q9HBH9 whole entry, looked up): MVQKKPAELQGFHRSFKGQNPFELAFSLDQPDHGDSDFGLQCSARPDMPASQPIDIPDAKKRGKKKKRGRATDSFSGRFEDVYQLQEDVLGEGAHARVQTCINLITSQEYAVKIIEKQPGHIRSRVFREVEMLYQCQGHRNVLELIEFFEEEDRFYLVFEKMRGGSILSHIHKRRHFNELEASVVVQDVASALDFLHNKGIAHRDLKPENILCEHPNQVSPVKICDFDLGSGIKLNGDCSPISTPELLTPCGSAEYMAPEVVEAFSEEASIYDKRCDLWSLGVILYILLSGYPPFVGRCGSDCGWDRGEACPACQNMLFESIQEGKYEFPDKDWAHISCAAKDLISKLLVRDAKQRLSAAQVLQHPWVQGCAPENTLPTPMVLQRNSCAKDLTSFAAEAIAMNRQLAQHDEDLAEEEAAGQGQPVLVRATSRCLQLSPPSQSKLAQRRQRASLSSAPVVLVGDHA

O=c1nc(-c2ccccn2)sc2ccccc12 [BTZO-1]
inactive: residual activity [1] 85% | residual activity [2] 100% | residual activity [3] 100% | residual activity [4] 67% | residual activity [6] 77% | residual activity [7] 73% | residual activity [8] 100% | inhibition [9] 17.2% | residual activity [10] 87% | residual activity [11] 100% | residual activity [12] 100% | residual activity [13] 95% | residual activity [14] 100% | residual activity [15] 100% | residual activity [16] 86% | residual activity [17] 100% | residual activity [18] 100% | residual activity [19] 100% | residual activity [20] 92% | residual activity [21] 79% | residual activity [22] 93% | residual activity [23] 100% | residual activity [24] 90% | residual activity [25] 98% | residual activity [26] 100% | residual activity [27] 96% | residual activity [28] 97% | residual activity [29] 89% | inhibition [31] -0.975% | residual activity [32] 100% | residual activity [33] 75% | residual activity [34] 100% | residual activity [35] 75% | residual activity [36] 75% | residual activity [37] 76% | residual activity [38] 73% | residual activity [39] 100% | residual activity [40] 83% | residual activity [41] 94% | residual activity [42] 82% | residual activity [43] 100% | residual activity [44] 91%
active: residual activity [5] 36% | inhibition [30] 55.9%

O=C1NC(c2ccccn2)Sc2ccccc21 (stereo not drawn) [BTZO-4]
inactive: residual activity [1] 85% | residual activity [2] 100% | residual activity [3] 77% | residual activity [4] 77% | residual activity [5] 78% | residual activity [6] 73% | residual activity [7] 77% | residual activity [8] 93% | inhibition [9] -1.17% | residual activity [10] 85% | residual activity [11] 92% | residual activity [12] 84% | residual activity [13] 97% | residual activity [14] 100% | residual activity [15] 100% | residual activity [16] 79% | residual activity [17] 100% | residual activity [18] 84% | residual activity [19] 94% | residual activity [20] 85% | residual activity [21] 82% | residual activity [22] 69% | residual activity [23] 100% | residual activity [24] 79% | residual activity [25] 86% | residual activity [26] 91% | residual activity [27] 88% | residual activity [28] 79% | residual activity [29] 92% | inhibition [30] 6.34% | inhibition [31] 1.89% | residual activity [32] 100% | residual activity [33] 68% | residual activity [34] 100% | residual activity [35] 90% | residual activity [36] 81% | residual activity [37] 59% | residual activity [38] 72% | residual activity [39] 100% | residual activity [40] 83% | residual activity [41] 67% | residual activity [42] 99% | residual activity [43] 98% | residual activity [44] 81%
